Results from patent publication US11136597B2, “Compositions for enhancing targeted gene editing and methods of use thereof” (Yale University, priority 2016, dated 2021).

Tests used:
[1] = system: skin fibroblasts from β-globin/GFP mice, IVS2-654 (C→T) mutation; assay: GFP/beta globin gene correction assay in mouse skin fibroblasts with DNA repair or other small molecule inhibitors; type: cell-based; conditions: inhibitor given 48 hours before tcPNA1 + donor DNA nanoparticles, flow cytometry 72 hours later
Method: Skin fibroblasts were isolated from the β-globin/GFP mice (intron 2 of human β-globin inserted with in the GFP coding regions) and grown in culture in DMEM medium plus 10% FCS. The intron contains the IVS2-654 (C→T) mutation. The gene correction assay is illustrated in FIG. 5A.
The fibroblasts were treated ex vivo with nanoparticles containing tcPNA1+ Donor DNA and 72 hours later flow cytometry analysis was performed to quantify the % gene correction based on the frequency of GFP positive cells. In some cases, DNA repair inhibitors or other small molecule inhibitors were given 48 hours before the nanoparticle treatment.

[2] = system: homology-dependent repair (HDR); assay: Luciferase reporter gene assay for homology-dependent repair (HDR) in CD117+ cells; type: cell-based, mouse; conditions: CD117+ cells
Method: An inactivating I-Sce1 site was cloned 56 amino acids into the firefly luciferase open reading frame under the control of a CMV promoter. The reporter construct also contains a promoterless luciferase gene used as a template for homologous recombination. A double-strand break in the luciferase reporter is created by in vitro digestion with the I-Sce I restriction enzyme (NEB #R0694L). Plasmid DNA was digested with I-Sce 1 for 1 hour at 37° C. at a ratio of 10 units enzyme to 1 μg DNA and then the enzyme was inactivated at 65° C. for 20 minutes. The linearization of the plasmid was confirmed for each digestion via gel electrophoresis and the linear plasmid was purified using the Qiagen Qiaquick spin columns. After separation CD117+ and CD117-cells from bone marrow of β-globin/GFP transgenic mice, cells were transfected using the Lonza 2b Nucleofector Device. 5×10^5 cells were transfected with 1 μg of either the luciferase reporter vector or a positive control firefly luciferase expression vector, along with 50 ng of a renilla luciferase expression plasmid as a transfection efficiency control. All transfections were performed in triplicate. After transfection the cells were plated at a density of 5×10^5 cells/ml in 12-well plates. After 24 hours incubation post transfection, luciferase activity was measured using the Promega Dual Luciferase Assay Kit. In each sample firefly luciferase activity was normalized to the renilla luciferase transfection control. Reporter reactivation was calculated as a ratio of normalized firefly luciferase activity in the cells transfected with the reporter plasmid to the positive control.
To test whether the above increases in DNA repair gene expression could be correlated with functional differences in DNA repair, a luciferase-based assay was used to quantify repair of DNA double-strand breaks (DSBs) by HDR. In this assay, repair of a DSB in a reporter plasmid via intramolecular homologous recombination creates (“reactivates”) a functional luciferase gene (FIG. 2H), and so the assay provides a measure of HDR capacity (FIG. 2J).

[3] = system: CD117+ cells from β-globin/GFP transgenic mice; assay: Ex vivo gene editing in pre-sorted CD117+ cells with or without SCF or c-Kit pathway kinase inhibitors; type: cell-based, mouse; conditions: for gene editing frequency in pre-sorted CD117+ cells in presence of kinase inhibitor: γtcPNA4/donor DNA NPs plus inhibitor: dasatinib 200 nM, MEK162 1.0 μM, BKM120 3.0 μM
Method: For CD117+ cell experiments, Iscove's Modified Dulbecco's Media (IMDM) media containing insulin (10 ng/ml), FCS (10%) and erythropoietin (1 U/ml) was used to culture CD117+ cells after isolation using magnetic separation. Where indicated, 3 μg/ml of SCF (Recombinant murine SCF, catalog #250-03, PeproTech, Rocky Hill, N.J.;) was added prior to nanoparticle treatment. 2 mg/ml of NPs were used to treat 50,000-100,000 CD117+ cells in triplicate for 48 hrs in the above media, followed by flow cytometry analyses as above. Inhibitors were used at concentrations of 200 nM (dasatinib), 1.0 μM (MEK162) and 3.0 μM (BKM120). Dasatanib was obtained from Cayman Chemical (Ann Arbor, Mich.; item #11498) and dissolved according to manufacturer's protocol. MEK162 and BKM120 were obtained from Dr. Harriet Kluger, Yale University.
(§1) BD Bioscience kit catalog #558451 (BDImag™ Hematopoietic Progenitor Stem Cell Enrichment Set—DM) was used to isolate CD117 cells. Enrichment for CD117 was confirmed by flow cytometry. CD117+ enriched cells were labeled with CD117-APC (BD Pharmingen™ catalog #558451) antibody. Cells were co-labelled with control IgG antibody (BD Pharmingen™ catalog #555746) for gating purposes. To quantify GFP expression, after CD117 co-labelling, flow cytometry was performed using FACScaliburS by resuspending cells in PBS/1% FBS where green fluorescent cells are measured in the Fl1 channel and APC stained cells are in the Fl4 channel Antibodies for other markers were Ter119 (BD Pharmingen™ catalog #561033) and CD45 APC (BD Pharmingen™ catalog #561018).
To explore the mechanism of the increased gene editing in CD117+ cells, the requirement of c-Kit-dependent signaling for elevated gene correction or whether CD117 simply serves as a marker for the increased susceptibility to gene editing was distinguished. To do this, γtcPNA4/donor DNA NP-mediated gene editing was assayed in pre-sorted CD117+ cells in the presence or absence of selected kinase inhibitors (FIG. 2D). Dasatinib, which inhibits the c-Kit kinase in addition to the BCR/Abl and Src kinases, reduced the gene editing from 7% to 2.0%.

[4] = system: 120 bp double-stranded DNA fragments containing β-globin sequences; assay: Gel mobility shift assay of SCD tcPNAs; type: binding, human; conditions: physiological conditions
Excerpt: Each 120 bp dsDNA contained the binding site for the respective tcPNAs.

[5] = system: IVS2-654 (C→T) mutation within the β-globin/GFP fusion gene; assay: Ex vivo gene correction (% GFP+ cells, flow cytometry) in bone marrow cells from β-globin/GFP transgenic mice; type: cell-based, mouse; conditions: total bone marrow cells, 2 mg/ml PLGA NPs with donor DNA, 48 hr
Excerpt: To assay for gene editing in a robust and quantitative manner, a transgenic mouse model was utilized with a β-globin/GFP fusion transgene of human β-globin intron 2 carrying a thalassemia-associated IVS2-654 (C→T) mutation embedded within the GFP coding sequence, resulting in incorrect splicing of β-globin/GFP mRNA and lack of GFP expression (Sazani, et al., Nat. Biotechnol., 20:1228-1233 (2002)). PNA-mediated triplex-formation induces DNA repair and recombination of the genomic site with a 60-nucleotide sense donor DNA that is homologous to a portion of the β-globin intron 2 sequence except for providing a wild-type nucleotide at the IVS2-654 position. Via recombination, the splice-site mutation is corrected and expression of functional GFP occurs (FIG. 1A) (McNeer, et al., Gene Therapy, 20:658-669 (2013); Bahal, et al., Curr. Gene Ther., 14:331-342 (2014)). […]
as §1, with “Enrichment for CD117 was confirmed by flow cytometry. CD117+ enriched cells were labeled with CD117-APC (BD Pharmingen™ catalog #558451) antibody. Cells were co-labelled with control IgG antibody (BD Pharmingen™ catalog #555746) for gating purposes.” left out

[6] = system: 120-bp DNA duplexes containing the respective target sequences (β-globin intron 2); assay: DNA binding gel shift assay of tcPNAs; set-up: species or system human; conditions: 120-bp dsDNA, 37 C, 10 mM NaPi pH 7.4
Method: For gel electrophoresis, synthetic 120 bp dsDNA targets were incubated with indicated oligomers at 37 C in low ionic strength buffer (10 mM NaPi, pH 7.4). The samples were separated on 10% non-denaturing polyacrylamide gels in 1×TBE buffer. The gels were run at […] for 1.5 hr. After electrophoresis, the gels were stained with 1×SYBR-Gold (catalog #S11494, Invitrogen) for 10 min, washed 2× with 1×TBE buffer, and then imaged using a gel documentation system (BioDoc-It System). The images were then inverted using Adobe Photoshop 6.0.

O=C(c1cc(Cc2n[nH]c(=O)c3ccccc23)ccc1F)N1CCN(C(=O)C2CC2)CC1 [AZD-2281]
effect on gene editing (% gene correction, GFP positive cells) [1]: boosts gene editing

Nc1cc(C(F)(F)F)c(-c2cc(N3CCOCC3)nc(N3CCOCC3)n2)cn1 [BKM120, reference compound]
HDR repair activity (luciferase reactivation) in CD117+ cells [2]: diminished
gene editing frequency in pre-sorted CD117+ cells in presence of kinase inhibitor [3]: 4.1%

Cc1nc(Nc2ncc(C(=O)Nc3c(C)cccc3Cl)s2)cc(N2CCN(CCO)CC2)n1 [Dasatinib]
fold reduction of gene editing frequency ([3]; CD117+ cells, inhibition of c-Kit kinase): ~4 fold
gene editing frequency in pre-sorted CD117+ cells in presence of kinase inhibitor [3]: 2.0%

Cn1cnc2c(F)c(Nc3ccc(Br)cc3F)c(C(=O)NOCCO)cc21 [MEK162, reference compound]
HDR repair activity (luciferase reactivation) in CD117+ cells [2]: diminished
gene editing frequency in pre-sorted CD117+ cells in presence of kinase inhibitor [3]: 2.6%

CC(C)c1cc(-c2n[nH]c(=O)n2-c2ccc3c(ccn3C)c2)c(O)cc1O [STA-9090/Ganetespib]
effect on gene editing (% gene correction, GFP positive cells) [1]: enhances gene editing

C[C@@]1(CO)[C@H](O)CC[C@@]2(C)[C@H]1CC[C@H]1C[C@@H]3C[C@@]12CC[C@]3(O)CO [aphidicolin]
effect on gene editing (% gene correction, GFP positive cells) [1]: boosts gene editing

H-KKK-JJTJTTJ-OOO-CTTCTCCACAGGAGTCAG-KKK-NH2 (NNTNTTNCTTCTCCACAGGAGTCAG; listed as DNA, chemistry not fully specified) [SCD-tcPNA 1]
binding to 120 bp double-stranded DNA fragments (gel mobility shift) [4]: binding

H-KKK-JTTTJTTTJTJT-OOO-TCTCTTTCTTTCAGGGCA-KKK-NH2 (NTTTNTTTNTNTTCTCTTTCTTTCAGGGCA; miniPEG γ units, lysine caps, amide, chemistry not fully specified) [γtcPNA4]
genome modification frequency (% GFP+ cells) [5]: 1.62%

H-KKK-TJTJTTJT-OOO-TCTTCTCTGTCTCCACAT-KKK-NH2 (TNTNTTNTTCTTCTCTGTCTCCACAT; listed as DNA, chemistry not fully specified) [SCD-tcPNA 3]
binding to 120 bp double-stranded DNA fragments (gel mobility shift) [4]: binding

H-KKK-TTJJTJT-OOO-TCTCCTTAAACCTGTCTT-KKK-NH2 (TTNNTNTTCTCCTTAAACCTGTCTT; listed as DNA, chemistry not fully specified) [SCD-tcPNA 2]
binding to 120 bp double-stranded DNA fragments (gel mobility shift) [4]: binding

H-KKK-TTJTTTJTTJTJ-OOO-CTCTTCTTTCTTGACAGG-KKK-NH2 (TTNTTTNTTNTNCTCTTCTTTCTTGACAGG; lysine caps, linker, C-terminal amide, chemistry not fully specified) [γtcPNA4-Scr, scrambled version of γtcPNA4 with the same base composition]
genome modification frequency (% GFP+ cells) [5]: no modification
binding to target site in duplex DNA (gel shift) [6]: No binding
